Assay results: US20120142705A1, “ISATIN AND OXINDOLE COMPOUNDS” (priority 2010, published 2012)

Target: T1, Recombinant human liver GK1 (GST-GK) (Homo sapiens, UniProt P35557)
T1 construct: made in house; host or cells: E. coli
T1 sequence (P35557 1-466 isoform P35557-2): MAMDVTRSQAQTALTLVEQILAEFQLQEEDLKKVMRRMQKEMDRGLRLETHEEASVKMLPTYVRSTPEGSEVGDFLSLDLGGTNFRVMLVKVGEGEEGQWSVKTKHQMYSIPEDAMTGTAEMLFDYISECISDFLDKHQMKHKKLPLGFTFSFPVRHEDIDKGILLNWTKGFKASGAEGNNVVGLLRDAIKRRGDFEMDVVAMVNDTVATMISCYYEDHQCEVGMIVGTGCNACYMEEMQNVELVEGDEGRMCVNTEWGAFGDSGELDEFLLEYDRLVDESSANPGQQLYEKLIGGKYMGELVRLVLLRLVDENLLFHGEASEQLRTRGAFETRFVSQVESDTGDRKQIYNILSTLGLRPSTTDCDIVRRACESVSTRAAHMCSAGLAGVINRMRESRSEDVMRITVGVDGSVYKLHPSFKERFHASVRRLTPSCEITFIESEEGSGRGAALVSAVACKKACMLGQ
Test: In vitro glucokinase activity, G6PDH-coupled spectrophotometric assay
Format: biochemical
Conditions: 5 mM D-glucose, 30° C., pH 7.1
In short: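 GST-fused human liver GK1 from E. coli, run at 30° C. in pH 7.1 HEPES with 5 mM glucose, 1 mM ATP and 10% DMSO, coupled via G6PDH to NADH. OD340 rate measured after enzyme start; SC1.5 is the activator concentration raising activity 50% over DMSO control.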

Structure (SMILES)	SC1.5 (concentration of activator that produced a 50% increase in the activity of GK)
CC(C)CC(C(=O)Nc1cnccn1)N1C(=O)C(=O)c2ccc(Cl)cc21 (stereo not drawn) [Example 112, 2-(6-Chloro-2,3-dioxo-2,3-dihydro-indol-1-yl)-4-methyl-pentanoic acid pyrazin-2-ylamide]	4.85 µM
CC(C)CC(C(=O)Nc1cnccn1)N1C(=O)Cc2ccc(Cl)cc21 (stereo not drawn) [Example 113, 2-(6-Chloro-2-oxo-2,3-dihydro-indol-1-yl)-4-methyl-pentanoic acid pyrazin-2-ylamide]	2.64 µM
CC(C)CC(C(=O)Nc1ccccn1)N1C(=O)Cc2ccc(Cl)cc21 (stereo not drawn) [Example 114, 2-(6-Chloro-2-oxo-2,3-dihydro-indol-1-yl)-4-methyl-pentanoic acid pyridin-2-ylamide]	0.91 µM
CC(C)CC(C(=O)Nc1nccs1)N1C(=O)Cc2ccc(Cl)cc21 (stereo not drawn) [Example 115, 2-(6-Chloro-2-oxo-2,3-dihydro-indol-1-yl)-4-methyl-pentanoic acid thiazol-2-ylamide]	1.48 µM
CC(C)CC(C(=O)Nc1ccn(C)n1)N1C(=O)Cc2ccc(Cl)cc21 (stereo not drawn) [Example 116, 2-(6-Chloro-2-oxo-2,3-dihydro-indol-1-yl)-4-methyl-pentanoic acid (1-methyl-1H-pyrazol-3-yl)-amide]	7.27 µM
O=C1C(=O)N(C(CC2CCCC2)C(=O)Nc2nccs2)c2cc(Cl)ccc21 (stereo not drawn) [Example 117, 2-(6-Chloro-2,3-dioxo-2,3-dihydro-indol-1-yl)-3-cyclopentyl-N-thiazol-2-yl-propionamide]	0.6 µM
O=C1C(=O)N(C(CC2CCCC2)C(=O)Nc2ccccn2)c2cc(Cl)ccc21 (stereo not drawn) [Example 118, 2-(6-chloro-2,3-dioxo-2,3-dihydro-indol-1-yl)-3-cyclopentyl-N-pyridin-2-yl-propionamide]	0.23 µM
Cn1ccc(NC(=O)C(CC2CCCC2)N2C(=O)C(=O)c3ccc(Cl)cc32)n1 (stereo not drawn) [Example 119, 2-(6-Chloro-2,3-dioxo-2,3-dihydro-indol-1-yl)-3-cyclopentyl-N-(1-methyl-1H-pyrazol-3-yl)-propionamide]	2.24 µM
O=C1C(=O)N(C(CC2CCCC2)C(=O)Nc2cnccn2)c2cc(Cl)ccc21 (stereo not drawn) [Example 120, 2-(6-Chloro-2,3-dioxo-2,3-dihydro-indol-1-yl)-3-cyclopentyl-N-pyrazin-2-yl-propionamide]	0.9 µM
O=C(Nc1cnccn1)C(CC1CCCC1)N1C(=O)Cc2ccc(Cl)cc21 (stereo not drawn) [Example 121, 2-(6-Chloro-2-oxo-2,3-dihydro-indol-1-yl)-3-cyclopentyl-N-pyrazin-2-yl-propionamide]	0.38 µM
O=C(Nc1ccccn1)C(CC1CCCC1)N1C(=O)Cc2ccc(Cl)cc21 (stereo not drawn) [Example 122, 2-(6-Chloro-2-oxo-2,3-dihydro-indol-1-yl)-3-cyclopentyl-N-pyridin-2-yl-propionamide]	0.1 µM
O=C(Nc1nccs1)C(CC1CCCC1)N1C(=O)Cc2ccc(Cl)cc21 (stereo not drawn) [Example 123, 2-(6-Chloro-2-oxo-2,3-dihydro-indol-1-yl)-3-cyclopentyl-N-thiazol-2-yl-propionamide]	0.27 µM
Cn1ccc(NC(=O)C(CC2CCCC2)N2C(=O)Cc3ccc(Cl)cc32)n1 (stereo not drawn) [Example 124, 2-(6-Chloro-2-oxo-2,3-dihydro-indol-1-yl)-3-cyclopentyl-N-(1-methyl-1H-pyrazol-3-yl)-propionamide]	1.1 µM
O=C(Nc1nccs1)C(CC1CCCC1)N1C(=O)Cc2ccc(F)cc21 (stereo not drawn) [Example 125, 3-Cyclopentyl-2-(6-fluoro-2-oxo-2,3-dihydro-indol-1-yl)-N-thiazol-2-yl-propionamide]	0.45 µM
Cn1ccc(NC(=O)C(CC2CCCC2)N2C(=O)Cc3ccc(F)cc32)n1 (stereo not drawn) [Example 126, 3-Cyclopentyl-2-(6-fluoro-2-oxo-2,3-dihydro-indol-1-yl)-N-(1-methyl-1H-pyrazol-3-yl)-propionamide]	1.86 µM
O=C(Nc1ccccn1)C(CC1CCCC1)N1C(=O)Cc2ccc(F)cc21 (stereo not drawn) [Example 127, 3-Cyclopentyl-2-(6-fluoro-2-oxo-2,3-dihydro-indol-1-yl)-N-pyridin-2-yl-propionamide]	0.18 µM
O=C(Nc1cnccn1)C(CC1CCCC1)N1C(=O)Cc2ccc(F)cc21 (stereo not drawn) [Example 128, 3-Cyclopentyl-2-(6-fluoro-2-oxo-2,3-dihydro-indol-1-yl)-N-pyrazin-2-yl-propionamide]	0.81 µM
Cc1ccc2c(c1)N(C(CC1CCCC1)C(=O)Nc1nccs1)C(=O)C2 (stereo not drawn) [Example 129, 3-Cyclopentyl-2-(6-methyl-2-oxo-2,3-dihydro-indol-1-yl)-N-thiazol-2-yl-propionamide]	0.53 µM
Cc1ccc2c(c1)N(C(CC1CCCC1)C(=O)Nc1cnccn1)C(=O)C2 (stereo not drawn) [Example 130, 3-Cyclopentyl-2-(6-methyl-2-oxo-2,3-dihydro-indol-1-yl)-N-pyrazin-2-yl-propionamide]	0.61 µM
Cc1ccc2c(c1)N(C(CC1CCCC1)C(=O)Nc1ccn(C)n1)C(=O)C2 (stereo not drawn) [Example 131, 3-Cyclopentyl-2-(6-methyl-2-oxo-2,3-dihydro-indol-1-yl)-N-(1-methyl-1H-pyrazol-3-yl)-propionamide]	2.28 µM
Cc1ccc2c(c1)N(C(CC1CCCC1)C(=O)Nc1ccccn1)C(=O)C2 (stereo not drawn) [Example 132, 3-Cyclopentyl-2-(6-methyl-2-oxo-2,3-dihydro-indol-1-yl)-N-pyridin-2-yl-propionamide]	0.23 µM
O=C(Nc1cnccn1)C(CC1CCCC1)N1C(=O)Cc2ccc(Br)cc21 (stereo not drawn) [Example 133, 2-(6-Bromo-2-oxo-2,3-dihydro-indol-1-yl)-3-cyclopentyl-N-pyrazin-2-yl-propionamide]	0.34 µM
O=C(Nc1nccs1)C(CC1CCCC1)N1C(=O)Cc2ccc(Br)cc21 (stereo not drawn) [Example 134, 2-(6-Bromo-2-oxo-2,3-dihydro-indol-1-yl)-3-cyclopentyl-N-thiazol-2-yl-propionamide]	0.19 µM
O=C(Nc1ccccn1)C(CC1CCCC1)N1C(=O)Cc2ccc(Br)cc21 (stereo not drawn) [Example 135, 2-(6-Bromo-2-oxo-2,3-dihydro-indol-1-yl)-3-cyclopentyl-N-pyridin-2-yl-propionamide]	0.12 µM
Cn1ccc(NC(=O)C(CC2CCCC2)N2C(=O)Cc3ccc(Br)cc32)n1 (stereo not drawn) [Example 136, 2-(6-Bromo-2-oxo-2,3-dihydro-indol-1-yl)-3-cyclopentyl-N-(1-methyl-1H-pyrazol-3-yl)-propionamide]	0.88 µM
N#Cc1ccc2c(c1)N(C(CC1CCCC1)C(=O)Nc1ccccn1)C(=O)C2 (stereo not drawn) [Example 137, 2-(6-Cyano-2-oxo-2,3-dihydro-indol-1-yl)-3-cyclopentyl-N-pyridin-2-yl-propionamide]	1.91 µM
CS(=O)(=O)c1ccc2c(c1)N(C(CC1CCCC1)C(=O)Nc1nccs1)C(=O)C2 (stereo not drawn) [Example 138, 3-Cyclopentyl-2-(6-methanesulfonyl-2-oxo-2,3-dihydro-indol-1-yl)-N-thiazol-2-yl-propionamide]	2.94 µM
